In PubChem BioAssay (NCI):
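Growth conditions: 96-well plates. Treatment: test compound, 48 hours, 5 concentrations. Analysis: linear interpolation between bracketing concentrations; unreached endpoints set to highest concentration. GI50 marks 50% less growth. Definition used: TGI = concentration required for complete inhibition of growth.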

What was measured:
Assay in all cases: NCI anticancer screen, dose series, 48 h
CAKI-1 renal = system: CAKI-1 renal
OVCAR-4 ovarian = system: OVCAR-4 ovarian
LOX IMVI melanoma = system: LOX IMVI melanoma
K-562 leukemia = system: K-562 leukemia
MDA-MB-231 breast = system: MDA-MB-231 breast
EKVX NSCLC = system: EKVX NSCLC
SF-539 CNS = system: SF-539 CNS
T-47D breast = system: T-47D breast
M14 melanoma = system: M14 melanoma
BT-549 breast = system: BT-549 breast
IGROV1 ovarian = system: IGROV1 ovarian
HL-60(TB) leukemia = system: HL-60(TB) leukemia
OVCAR-8 ovarian = system: OVCAR-8 ovarian
SK-MEL-2 melanoma = system: SK-MEL-2 melanoma
COLO 205 colon = system: COLO 205 colon
UACC-257 melanoma = system: UACC-257 melanoma
SK-MEL-28 melanoma = system: SK-MEL-28 melanoma
MCF7 breast = system: MCF7 breast
OVCAR-3 ovarian = system: OVCAR-3 ovarian
UACC-62 melanoma = system: UACC-62 melanoma
U251 CNS = system: U251 CNS
HCT-116 colon = system: HCT-116 colon
HS 578T breast = system: HS 578T breast
KM12 colon = system: KM12 colon
PC-3 prostate = system: PC-3 prostate
NCI-H522 lung = system: NCI-H522 lung
MOLT-4 leukemia = system: MOLT-4 leukemia
SNB-19 CNS = system: SNB-19 CNS
SR leukemia = system: SR leukemia
SK-OV-3 ovarian = system: SK-OV-3 ovarian
UO-31 renal = system: UO-31 renal
A498 renal = system: A498 renal
NCI/ADR-RES ovarian = system: NCI/ADR-RES ovarian
NCI-H226 lung = system: NCI-H226 lung
OVCAR-5 ovarian = system: OVCAR-5 ovarian
HCC-2998 colon = system: HCC-2998 colon
SF-295 CNS = system: SF-295 CNS
SN12C renal = system: SN12C renal
MDA-MB-435 = system: MDA-MB-435
A549 NSCLC = system: A549 NSCLC
NCI-H460 lung = system: NCI-H460 lung
RPMI-8226 leukemia = system: RPMI-8226 leukemia
TK-10 renal = system: TK-10 renal
SNB-75 CNS = system: SNB-75 CNS
786-0 renal = system: 786-0 renal
HOP-92 NSCLC = system: HOP-92 NSCLC
DU-145 prostate = system: DU-145 prostate
SF-268 CNS = system: SF-268 CNS
SW-620 colon = system: SW-620 colon
SK-MEL-5 melanoma = system: SK-MEL-5 melanoma
CCRF-CEM leukemia = system: CCRF-CEM leukemia
RXF 393 renal = system: RXF 393 renal
ACHN renal = system: ACHN renal
MALME-3M melanoma = system: MALME-3M melanoma
HCT-15 colon = system: HCT-15 colon
HOP-62 NSCLC = system: HOP-62 NSCLC
NCI-H23 lung = system: NCI-H23 lung
HT29 colon = system: HT29 colon

Q: How did the GI50 (CAKI-1 renal) turn out when `CCCC[C@@H]1NC(=O)[C@H](CCCCN)NC(=O)[C@H](CCCNC(=N)N)NC(=O)[C@H](CC(C)C)NC(=O)[C@@H](NC(=O)[C@H](Cc2cccc(Cl)c2)NC(=O)[C@@H]2CCCN2C(=O)[C@@H](NC(C)=O)C(C)C)CCSSC[C@@H](C(=O)N[C@@H](CCCCN)C(=O)N2CCC[C@H]2C(=O)N2CCC[C@H]2C(=O)N[C@@H](CCC(=O)O)C(N)=O)NC(=O)[C@H](Cc2ccccc2)NC(=O)[C@H](CO)NC(=O)[C@H](C)NC(=O)[C@@H]2CCCN2C1=O` was run?
A: > 50 µM

Q: And the TGI (CAKI-1 renal)?
A: > 50 µM

Q: And the GI50 (OVCAR-4 ovarian)?
A: > 50 µM

Q: And the TGI (OVCAR-4 ovarian)?
A: > 50 µM

Q: What about the GI50 (LOX IMVI melanoma) of the same molecule?
A: > 50 µM

Q: What about the TGI (LOX IMVI melanoma) of the same molecule?
A: > 50 µM

Q: And the GI50 (K-562 leukemia)?
A: > 50 µM

Q: And the TGI (K-562 leukemia)?
A: > 50 µM

Q: What about the GI50 (MDA-MB-231 breast) of the same molecule?
A: > 50 µM

Q: What about the TGI (MDA-MB-231 breast) of the same molecule?
A: > 50 µM

Q: And the GI50 (EKVX NSCLC)?
A: > 50 µM

Q: What about the TGI (EKVX NSCLC) of the same molecule?
A: > 50 µM

Q: What about the GI50 (SF-539 CNS) of the same molecule?
A: > 50 µM

Q: And the TGI (SF-539 CNS)?
A: > 50 µM

Q: What about the GI50 (T-47D breast) of the same molecule?
A: > 50 µM

Q: What about the TGI (T-47D breast) of the same molecule?
A: > 50 µM

Q: What about the GI50 (M14 melanoma) of the same molecule?
A: > 50 µM

Q: And the TGI (M14 melanoma)?
A: > 50 µM

Q: And the GI50 (BT-549 breast)?
A: > 50 µM

Q: What about the TGI (BT-549 breast) of the same molecule?
A: > 50 µM

Q: What about the GI50 (IGROV1 ovarian) of the same molecule?
A: > 50 µM

Q: What about the TGI (IGROV1 ovarian) of the same molecule?
A: > 50 µM

Q: And the GI50 (HL-60(TB) leukemia)?
A: > 50 µM

Q: And the TGI (HL-60(TB) leukemia)?
A: > 50 µM

Q: And the GI50 (OVCAR-8 ovarian)?
A: > 50 µM

Q: And the TGI (OVCAR-8 ovarian)?
A: > 50 µM

Q: And the GI50 (SK-MEL-2 melanoma)?
A: > 50 µM

Q: And the TGI (SK-MEL-2 melanoma)?
A: > 50 µM

Q: And the GI50 (COLO 205 colon)?
A: > 50 µM

Q: And the TGI (COLO 205 colon)?
A: > 50 µM

Q: What about the GI50 (UACC-257 melanoma) of the same molecule?
A: > 50 µM

Q: And the TGI (UACC-257 melanoma)?
A: > 50 µM

Q: What about the GI50 (SK-MEL-28 melanoma) of the same molecule?
A: > 50 µM

Q: And the TGI (SK-MEL-28 melanoma)?
A: > 50 µM

Q: What about the GI50 (MCF7 breast) of the same molecule?
A: > 50 µM

Q: And the TGI (MCF7 breast)?
A: > 50 µM

Q: What about the GI50 (OVCAR-3 ovarian) of the same molecule?
A: > 50 µM

Q: What about the TGI (OVCAR-3 ovarian) of the same molecule?
A: > 50 µM

Q: And the GI50 (UACC-62 melanoma)?
A: > 50 µM

Q: What about the TGI (UACC-62 melanoma) of the same molecule?
A: > 50 µM

Q: And the GI50 (U251 CNS)?
A: > 50 µM

Q: What about the TGI (U251 CNS) of the same molecule?
A: > 50 µM

Q: And the GI50 (HCT-116 colon)?
A: > 50 µM

Q: What about the TGI (HCT-116 colon) of the same molecule?
A: > 50 µM

Q: What about the GI50 (HS 578T breast) of the same molecule?
A: > 50 µM

Q: And the TGI (HS 578T breast)?
A: > 50 µM

Q: And the GI50 (KM12 colon)?
A: > 50 µM

Q: What about the TGI (KM12 colon) of the same molecule?
A: > 50 µM

Q: What about the GI50 (PC-3 prostate) of the same molecule?
A: > 50 µM

Q: What about the TGI (PC-3 prostate) of the same molecule?
A: > 50 µM

Q: And the GI50 (NCI-H522 lung)?
A: > 50 µM

Q: And the TGI (NCI-H522 lung)?
A: > 50 µM

Q: And the GI50 (MOLT-4 leukemia)?
A: > 50 µM

Q: What about the TGI (MOLT-4 leukemia) of the same molecule?
A: > 50 µM

Q: And the GI50 (SNB-19 CNS)?
A: > 50 µM

Q: And the TGI (SNB-19 CNS)?
A: > 50 µM

Q: What about the GI50 (SR leukemia) of the same molecule?
A: > 50 µM

Q: What about the TGI (SR leukemia) of the same molecule?
A: > 50 µM

Q: And the GI50 (SK-OV-3 ovarian)?
A: > 50 µM

Q: What about the TGI (SK-OV-3 ovarian) of the same molecule?
A: > 50 µM

Q: What about the GI50 (UO-31 renal) of the same molecule?
A: > 50 µM

Q: What about the TGI (UO-31 renal) of the same molecule?
A: > 50 µM

Q: What about the GI50 (A498 renal) of the same molecule?
A: > 50 µM

Q: What about the TGI (A498 renal) of the same molecule?
A: > 50 µM

Q: What about the GI50 (NCI/ADR-RES ovarian) of the same molecule?
A: > 50 µM

Q: And the TGI (NCI/ADR-RES ovarian)?
A: > 50 µM

Q: What about the GI50 (NCI-H226 lung) of the same molecule?
A: > 50 µM

Q: What about the TGI (NCI-H226 lung) of the same molecule?
A: > 50 µM

Q: And the GI50 (OVCAR-5 ovarian)?
A: > 50 µM

Q: What about the TGI (OVCAR-5 ovarian) of the same molecule?
A: > 50 µM

Q: What about the GI50 (HCC-2998 colon) of the same molecule?
A: > 50 µM

Q: What about the TGI (HCC-2998 colon) of the same molecule?
A: > 50 µM

Q: And the GI50 (SF-295 CNS)?
A: > 50 µM

Q: What about the TGI (SF-295 CNS) of the same molecule?
A: > 50 µM

Q: What about the GI50 (SN12C renal) of the same molecule?
A: > 50 µM

Q: What about the TGI (SN12C renal) of the same molecule?
A: > 50 µM

Q: What about the GI50 (MDA-MB-435) of the same molecule?
A: > 50 µM

Q: And the TGI (MDA-MB-435)?
A: > 50 µM

Q: And the GI50 (A549 NSCLC)?
A: > 50 µM

Q: What about the TGI (A549 NSCLC) of the same molecule?
A: > 50 µM

Q: And the GI50 (NCI-H460 lung)?
A: > 50 µM

Q: What about the TGI (NCI-H460 lung) of the same molecule?
A: > 50 µM

Q: What about the GI50 (RPMI-8226 leukemia) of the same molecule?
A: > 50 µM

Q: What about the TGI (RPMI-8226 leukemia) of the same molecule?
A: > 50 µM

Q: What about the GI50 (TK-10 renal) of the same molecule?
A: > 50 µM

Q: And the TGI (TK-10 renal)?
A: > 50 µM

Q: And the GI50 (SNB-75 CNS)?
A: > 50 µM

Q: What about the TGI (SNB-75 CNS) of the same molecule?
A: > 50 µM

Q: And the GI50 (786-0 renal)?
A: > 50 µM

Q: What about the TGI (786-0 renal) of the same molecule?
A: > 50 µM

Q: And the GI50 (HOP-92 NSCLC)?
A: > 50 µM

Q: What about the TGI (HOP-92 NSCLC) of the same molecule?
A: > 50 µM

Q: And the GI50 (DU-145 prostate)?
A: > 50 µM

Q: And the TGI (DU-145 prostate)?
A: > 50 µM

Q: What about the GI50 (SF-268 CNS) of the same molecule?
A: > 50 µM

Q: What about the TGI (SF-268 CNS) of the same molecule?
A: > 50 µM

Q: And the GI50 (SW-620 colon)?
A: > 50 µM

Q: And the TGI (SW-620 colon)?
A: > 50 µM

Q: And the GI50 (SK-MEL-5 melanoma)?
A: > 50 µM

Q: And the TGI (SK-MEL-5 melanoma)?
A: > 50 µM

Q: What about the GI50 (CCRF-CEM leukemia) of the same molecule?
A: > 50 µM

Q: And the TGI (CCRF-CEM leukemia)?
A: > 50 µM

Q: What about the GI50 (RXF 393 renal) of the same molecule?
A: > 50 µM

Q: What about the TGI (RXF 393 renal) of the same molecule?
A: > 50 µM

Q: And the GI50 (ACHN renal)?
A: > 50 µM

Q: What about the TGI (ACHN renal) of the same molecule?
A: > 50 µM

Q: And the GI50 (MALME-3M melanoma)?
A: > 50 µM

Q: And the TGI (MALME-3M melanoma)?
A: > 50 µM

Q: And the GI50 (HCT-15 colon)?
A: > 50 µM

Q: And the TGI (HCT-15 colon)?
A: > 50 µM

Q: What about the GI50 (HOP-62 NSCLC) of the same molecule?
A: > 50 µM

Q: And the TGI (HOP-62 NSCLC)?
A: > 50 µM

Q: And the GI50 (NCI-H23 lung)?
A: > 50 µM

Q: And the TGI (NCI-H23 lung)?
A: > 50 µM

Q: And the GI50 (HT29 colon)?
A: > 50 µM

Q: And the TGI (HT29 colon)?
A: > 50 µM
